Assay results taken from US20050112573A1, “Method of detecting toxic substance” (priority 2001, published 2005).

Tested on: yeast genes (level of expressed mRNA)
Assay: DNA chip analysis of expressed mRNA of yeast genes after 2 h culture with a toxic chemical substance
Type: cell-based, Saccharomyces cerevisiae S288C
Description: Yeast (Saccharomyces cerevtisiae S288C (α SUC2mal mel gap2 CUP1)) were cultured at 25° C. on YPD medium (yeast extract 1%, polypepton 2%, glucose 2%). One of toxic chemical substances was added to the cell at logarithmic growth phase, and the cell was further cultured for two hours. Cell was cultured without any chemical substance in the same condition, and was used as control. Concentrations of the chemical substances were defined to inhibit the growth of the yeast but not lead to death.
After the completion of cultivation, the culture was centrifuged to collect the cells. To the cells, sodium acetate buffer (50 mM sodium acetate, 10 mM EDTA, 1% SDS) was added, and the mixture was shaken at 65° C. for five minutes, followed by returning to room temperature, and obtaining the supernatant, which procedure was repeated two times. To the supernatant, ½ amount of a solution of phenol/chloroform was added, and the mixture was centrifuged to give a supernatant, which was added with an equal amount of chloroform, and the mixture was centrifuged to give a supernatant. To the supernatant, an equal amount of isopropanol containing 0.3 M sodium acetate was added, and the mixture was allowed to stand at room temperature for 30 minutes, after which the mixture was centrifuged to give a sediment of the whole RNAs. Seventy % ethanol was added to the sediment, and the mixture was again centrifuged to give a sediment, which was then dried and dissolved in water. mRNA was isolated from the whole RNAs as followings. In view of the fact that a poly A chain is attached to the 3′ terminus of mRNA, a polynucleotide having a poly T structure which was immobilized on the surface of latex beads was used to trap the mRNA, and then the mRNA was washed and eluted with spine column (Oligotex-dT30<Super>mRNA Purification Kit, Takara). Reverse transcription of the mRNA was conducted with a reverse transcriptase (Super Script II Reverse Transcriptase; catalogue No. 18064-014, GibcoBRL) using fluorescence-labeled nucleotides to give cDNAs that were introduced with Cy3-dUTP or Cy5-dUTP during the reverse transcription.
The labeled cDNAs were dissolved in TE buffer (10 mM Tris-HCl/1 mM EDTA, pH8.0), and the solution was dropped on the DNA chip containing the whole genes of yeast (DNA Chip Research Inc. Japan) so that the cDNAs were hybridized on the DNA chip at 65° C. for over 12 hours. The fluoresces intensity of the DNA chip was read with a scanner, and the ratio relative to the fluorescence intensity resulting from the absence of chemical substance was estimated as the following, which is shown in Tables 1 to 9: [formula]
In the Tables, “Intensity” indicated in the rightmost column is a value of the level of expressed mRNA of each gene in control cells as divided by the average level of the expressions of the whole genes.

manganese ethylenebis(dithiocarbamate) [(8)]
The level of expressed mRNA in the presence of chemical substance/ (yeast gene YAL053W, ratio to control without chemical): 0.8
The level of expressed mRNA in the presence of chemical substance/The level of expressed mRNA in the absence of chemical substance (yeast gene YAR010C): 1.3
The level of expressed mRNA in the presence of chemical substance/The level of expressed mRNA in the absence of chemical substance (yeast gene YBL005W-A): 1.0
The level of expressed mRNA in the presence of chemical substance/The level of expressed mRNA in the absence of chemical substance (yeast gene YBL041W): 1.7
The level of expressed mRNA in the presence of chemical substance/The level of expressed mRNA in the absence of chemical substance (yeast gene YBL043W): 2.1
The level of expressed mRNA in the presence of chemical substance/ (yeast gene YBL048W, ratio to control without chemical substance, 2 h culture): 1.2
The level of expressed mRNA in the presence of chemical substance/The level of expressed mRNA in the absence of chemical substance (yeast gene YBL078C): 1.6
The level of expressed mRNA in the presence of chemical substance/ (yeast gene YBL107C, ratio to control without chemical substance, 2 h culture): 1.9
The level of expressed mRNA in the presence of chemical substance/in the absence of chemical substance (yeast gene YBR036C): 0.7
The level of expressed mRNA in the presence of chemical substance/The level of expressed mRNA in the absence of chemical substance (yeast gene YBR214W): 0.7
The level of expressed mRNA in the presence of chemical substance/in the absence of chemical substance (yeast gene YBR298C): 0.5
The level of expressed mRNA in the presence of chemical substance/The level of expressed mRNA in the absence of chemical substance (yeast gene YCL020W): 1.7
The level of expressed mRNA in the presence of chemical substance/The level of expressed mRNA in the absence of chemical substance (yeast gene YCL027W): 0.6
The level of expressed mRNA in the presence of chemical substance/The level of expressed mRNA in the absence of chemical substance (yeast gene YCR004C): 1.2
The level of expressed mRNA in the presence of chemical substance/The level of expressed mRNA in the absence of chemical substance (yeast gene YCR071C): 0.9
The level of expressed mRNA in the presence of chemical substance/The level of expressed mRNA in the absence of chemical substance (yeast gene YCR088W): 0.5
The level of expressed mRNA in the presence of chemical substance/The level of expressed mRNA in the absence of chemical substance (yeast gene YDL008W): 1.2
The level of expressed mRNA in the presence of chemical substance/ (yeast gene YDL072C, ratio to control without chemical): 0.8
The level of expressed mRNA in the presence of chemical substance/in the absence of chemical substance (yeast gene YDL078C): 1.0
The level of expressed mRNA in the presence of chemical substance/ (yeast gene YDL204W, ratio to control without chemical): 1.1
The level of expressed mRNA in the presence of chemical substance/in the absence of chemical substance (yeast gene YDL215C): 1.1
The level of expressed mRNA in the presence of chemical substance/ (yeast gene YDL222C, ratio to control without chemical): 0.7
The level of expressed mRNA in the presence of chemical substance/The level of expressed mRNA in the absence of chemical substance (yeast gene YDL238C): 5.8
The level of expressed mRNA in the presence of chemical substance/The level of expressed mRNA in the absence of chemical substance (yeast gene YDR055W): 1.6
The level of expressed mRNA in the presence of chemical substance/The level of expressed mRNA in the absence of chemical substance (yeast gene YDR084C): 0.7
The level of expressed mRNA in the presence of chemical substance/The level of expressed mRNA in the absence of chemical substance (yeast gene YDR085C): 2.0
The level of expressed mRNA in the presence of chemical substance/The level of expressed mRNA in the absence of chemical substance (yeast gene YDR104C): 1.3
The level of expressed mRNA in the presence of chemical substance/The level of expressed mRNA in the absence of chemical substance (yeast gene YDR115W): 1.3
The level of expressed mRNA in the presence of chemical substance/The level of expressed mRNA in the absence of chemical substance (yeast gene YDR259C): 1.4
The level of expressed mRNA in the presence of chemical substance/in the absence of chemical substance (yeast gene YDR297W): 1.5
The level of expressed mRNA in the presence of chemical substance/The level of expressed mRNA in the absence of chemical substance (yeast gene YDR315C): 1.4
The level of expressed mRNA in the presence of chemical substance/ (yeast gene YDR330W, ratio to control without chemical substance, 2 h culture): 1.1
The level of expressed mRNA in the presence of chemical substance/The level of expressed mRNA in the absence of chemical substance (yeast gene YDR358W): 1.2
The level of expressed mRNA in the presence of chemical substance/in the absence of chemical substance (yeast gene YDR387C): 0.7
The level of expressed mRNA in the presence of chemical substance/The level of expressed mRNA in the absence of chemical substance (yeast gene YDR388W): 0.8
The level of expressed mRNA in the presence of chemical substance/ (yeast gene YDR411C, ratio to control without chemical substance, 2 h culture): 0.9
The level of expressed mRNA in the presence of chemical substance/The level of expressed mRNA in the absence of chemical substance (yeast gene YDR432W): 0.5
The level of expressed mRNA in the presence of chemical substance/The level of expressed mRNA in the absence of chemical substance (yeast gene YDR481C): 1.0
The level of expressed mRNA in the presence of chemical substance/The level of expressed mRNA in the absence of chemical substance (yeast gene YDR510W): 1.5
The level of expressed mRNA in the presence of chemical substance/ (yeast gene YDR511W, ratio to control without chemical substance, 2 h culture): 1.7
The level of expressed mRNA in the presence of chemical substance/ (yeast gene YDR545W, ratio to control without chemical substance, 2 h culture): 0.6
The level of expressed mRNA in the presence of chemical substance/ (yeast gene YEL001C, ratio to control without chemical): 1.2
The level of expressed mRNA in the presence of chemical substance/The level of expressed mRNA in the absence of chemical substance (yeast gene YEL042W): 0.7
The level of expressed mRNA in the presence of chemical substance/The level of expressed mRNA in the absence of chemical substance (yeast gene YEL066W): 1.4
The level of expressed mRNA in the presence of chemical substance/ (yeast gene YER004W, ratio to control without chemical substance, 2 h culture): 1.1
The level of expressed mRNA in the presence of chemical substance/ (yeast gene YER035W, ratio to control without chemical substance, 2 h culture): 1.2
The level of expressed mRNA in the presence of chemical substance/The level of expressed mRNA in the absence of chemical substance (yeast gene YER039C): 0.7
The level of expressed mRNA in the presence of chemical substance/ (yeast gene YER079W, ratio to control without chemical substance, 2 h culture): 1.4
The level of expressed mRNA in the presence of chemical substance/ (yeast gene YER106W, ratio to control without chemical): 1.2
The level of expressed mRNA in the presence of chemical substance/The level of expressed mRNA in the absence of chemical substance (yeast gene YER107C): 0.8
The level of expressed mRNA in the presence of chemical substance/The level of expressed mRNA in the absence of chemical substance (yeast gene YER130C): 1.2
The level of expressed mRNA in the presence of chemical substance/ (yeast gene YER158C, ratio to control without chemical substance, 2 h culture): 0.9
The level of expressed mRNA in the presence of chemical substance/ (yeast gene YER163C, ratio to control without chemical substance, 2 h culture): 1.4
The level of expressed mRNA in the presence of chemical substance/ (yeast gene YER175C, ratio to control without chemical substance, 2 h culture): 1.1
The level of expressed mRNA in the presence of chemical substance/ (yeast gene YFL006W, ratio to control without chemical substance, 2 h culture): 1.0
